The values below are quoted from earlier work in PMC9080292, “Correction: Rational design of a peptide capture agent for CXCL8 based on a model of the CXCL8:CXCR1 complex” (RSC Advances, 2018).

Square brackets hold non-standard residues; d marks the D form. Ends that are not written are not given here. Ahx = NCCCCCC(=O)O

The conditions of data set [1]: synthesized peptide, result in words; ref Helmer et al., RSC Adv., 2015, 5, 25657–25668; cited from earlier work.
For data set [2], the target named is T1, CXCL8 (Homo sapiens, UniProt P10145).
T1 sequence (P10145 21-99): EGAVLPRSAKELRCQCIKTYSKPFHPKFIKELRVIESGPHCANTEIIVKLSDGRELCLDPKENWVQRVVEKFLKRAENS
To be noted: original publication; fluorescence anisotropy; now attributed to the peptide ending with glutamic acid; ref Helmer et al., RSC Adv., 2015, 5, 25657–25668; read-out: affinity (reported high affinity); cited from earlier work. As for the experimental part:
This was confirmed by high resolution mass spectrometry. […] We conclude that all experiments were performed with the peptid ...

In the case of “AKWRMVLRI[Ahx]ADTLMRTE [IL8-RP-Loops, IL8 capture peptide; actually synthesized peptide with C-terminal glutamic acid]”, the “structure by CD-spectroscopy” value in data set [1] is reported as “a helical structure”.

Turning to “AKWRMVLRI–Ahx–ADTLMRTE (AKWRMVLRI[Ahx]ADTLMRTE) [IL8-RP-Loops, IL8 capture peptide; actually synthesized peptide with C-terminal glutamic acid]”, in data set [2], the Kd is 500 ± 300 nM.
